Target: Recombinant MAPKAPK2 (Homo sapiens, UniProt P49137)
Assay: Determination of MK-2 IC50 (HSP-peptide phosphorylation, anion exchange resin capture assay)
Type: biochemical
Conditions: MK-2 Avg. IC50, Table 2, tricyclic aminocyanopyridine MK-2 inhibitors
Procedure: The phosphorylation of HSP-peptide ([…]) by MAPKAPK2 was measured using an anion exchange resin capture assay method. […] The reaction was terminated and [γ^33P]ATP was removed from solution by the addition of 150 μl of AG 1×8 ion exchange resin in 900 mM sodium formate pH 3.0. A 50 μl aliquot of head volume was removed from the quenched reaction mixture and added to a 96-well plate, 150 μl of Microscint-40 (Packard) was added and the amount of phosphorylated-peptide was determined. Allow the Microscint to sit in the plates for 60 minutes prior to counting.
Compounds are evaluated as potential inhibitors of the MK2 kinase by measuring their effects on MK2 phosphorylation of the peptide substrate. Compounds may be screened initially at two concentrations prior to determination of IC50 values. Screening results are expressed as percent inhibition at the concentrations of compound tested. For IC50 value determinations, compounds are tested at six concentrations in ten-fold serial dilutions with each concentration tested in triplicate. Results are expressed as IC50 values in micromolar. The assay is performed at a final concentration of 2% DMSO.

Sequence of Recombinant MAPKAPK2 (P49137 whole entry, species assumed): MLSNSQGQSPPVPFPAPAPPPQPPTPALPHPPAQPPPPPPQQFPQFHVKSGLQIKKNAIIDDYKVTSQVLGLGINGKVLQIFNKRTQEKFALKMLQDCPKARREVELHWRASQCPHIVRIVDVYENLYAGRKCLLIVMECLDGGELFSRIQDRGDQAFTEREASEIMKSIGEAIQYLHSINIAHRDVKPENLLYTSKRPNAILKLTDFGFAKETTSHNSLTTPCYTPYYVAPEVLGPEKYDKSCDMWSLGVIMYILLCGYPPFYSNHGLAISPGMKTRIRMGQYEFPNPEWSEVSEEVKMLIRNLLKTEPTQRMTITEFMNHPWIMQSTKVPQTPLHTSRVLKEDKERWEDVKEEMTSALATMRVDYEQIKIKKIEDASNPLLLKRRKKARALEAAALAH

SMILES	IC50 [µM]
N#Cc1c(N)nc2c(c1N)Cc1ccc(OCCO)cc1O2 [Example 10]	0.483
N#Cc1c(N)nc2c(c1N)Cc1cc(N)ccc1O2 [Example 12]	0.514
CCOCCOc1cc2c(cc1O)Cc1c(nc(N)c(C#N)c1N)O2 [Example 14]	0.62
COc1ccc2c(c1O)Oc1nc(N)c(C#N)c(N)c1C2 [Example 15]	0.682
N#Cc1c(N)nc2c(c1N)Cc1ccc(OCCN)cc1O2 [Example 19]	0.82
N#Cc1c(N)nc2c(c1N)Cc1cc(C(=O)O)ccc1O2 [Example 20]	0.857
N#Cc1c(N)nc2c(c1N)Cc1ccc(O)c(O)c1O2 [Example 21]	0.857
N#Cc1c(N)nc2c(c1N)Cc1ccc(OCC(=O)O)cc1O2 [Example 23]	0.916
COc1cccc2c1Oc1nc(N)c(C#N)c(N)c1C2 [Example 24]	1.37
N#Cc1c(N)nc2c(c1N)Cc1ccc(OCCN3CCCC3)cc1O2 [Example 25]	1.68
CNc1c(C#N)c(N)nc2c1Cc1cc(OC)c(OC)cc1O2 [Example 26]	1.69
COc1ccc2c(c1)Oc1nc(N)c(C#N)c(N)c1C2 [Example 27]	1.72
CN(C)CCOc1ccc2c(c1)Oc1nc(N)c(C#N)c(N)c1C2 [Example 28]	1.75
COc1cc(N)cc2c1Oc1nc(N)c(C#N)c(N)c1C2 [Example 29]	1.79
N#Cc1c(N)nc2c(c1N)Cc1cc(OCCN)c(OCCN)cc1O2 [Example 31]	2.55
N#Cc1c(N)nc2c(c1N)Cc1cccc([N+](=O)[O-])c1O2 [Example 32]	2.58
COc1ccc(Nc2c(C#N)c(N)nc3c2Cc2cc(OC)c(OC)cc2O3)cc1 [Example 33]	2.98
COc1ccc2c(c1)Oc1nc(N)c(C#N)c(N)c1C2 [Example 34]	3.24
N#Cc1c(N)nc2c(c1N)C(C(C#N)C#N)c1cc(O)ccc1O2 (stereo not shown) [Example 35]	4.22
CCNc1c(C#N)c(N)nc2c1Cc1ccc(OCC)cc1O2 [Example 37]	4.76

SMILES	IC50 [µM]
COc1ccc(Nc2c(C#N)c(N)nc3c2Cc2cc(OC)c(OC)cc2O3)cc1 [Example 40]	6.11
N#Cc1c(N)nc2c(c1N)Cc1ccc(CN3CCCCC3)c(O)c1O2 [Example 42]	8.28
C=CCOc1cc2c(cc1OCC=C)Oc1nc(N)c(C#N)c(N)c1C2 [Example 43]	9.6
CCOCCNc1c(C#N)c(N)nc2c1Cc1ccc(OCCOCC)cc1O2 [Example 44]	9.66
CC(C)(C)OC(=O)COc1cc2c(cc1OCC(=O)OC(C)(C)C)Oc1nc(N)c(C#N)c(N)c1C2 [Example 45]	10.3
COc1cc2c(cc1OC)Oc1nc(N)c(C#N)c(NCCN)c1C2 [Example 46]	11.5
N#Cc1c(N)nc2c(c1N)Cc1cc(N)ccc1S2(=O)=O [Example 48]	14.4
N#Cc1c(N)nc2c(c1N)Cc1cc(Br)ccc1O2 [Example 49]	15.1
CCCNc1c(C#N)c(N)nc2c1Cc1cc(OC)c(OC)cc1O2 [Example 50]	15.6
N#Cc1c(N)nc2c(c1N)Cc1cc(O)ccc1S2 [Example 51]	17.4
CN(C)c1ccc2c(c1)Cc1c(nc(N)c(C#N)c1N)O2 [Example 52]	17.6
COc1ccc2c(c1)Cc1c(nc(N)c(C#N)c1N)O2 [Example 53]	19.7
COc1cccc2c1Oc1nc(N)c(C#N)c(N)c1C2C(C#N)C#N (stereo not shown) [Example 54]	21.2
COc1cc2c(cc1OC)Oc1nc(N)c(C#N)c(NCc3ccccc3)c1C2 [Example 55]	27.4
C=CCOc1ccc2c(c1)Oc1nc(N)c(C#N)c(N)c1C2 [Example 56]	33.8
N#Cc1c(N)nc2c(c1N)Cc1cccc(F)c1S2 [Example 57]	42.2
COc1ccc2c(c1)Cc1c(nc(N)c(C#N)c1N)O2 [Example 58]	43
N#Cc1c(N)nc2c(c1N)Cc1cccc(OCCN3CCCC3)c1O2 [Example 59]	45.2
N#Cc1c(N)nc2c(c1N)Cc1cc([N+](=O)[O-])ccc1O2 [Example 60]	62.2
N#Cc1c(N)nc2c(c1N)Cc1cccc(OCC(=O)O)c1O2 [Example 62]	72.2

Same assay, conditions: MK-2 Avg. IC50, Table I, aminocyanopyridine MK-2 inhibitors

SMILES	IC50 [µM]
N#Cc1c(N)nc2c(c1-c1cccc(F)c1F)CCc1[nH]ncc1-2 [Example 3]	1.95
N#Cc1c(N)nc2c(c1-c1ccco1)CCc1cc(C(=O)O)ccc1-2 [Example 5]	2.35
N#Cc1c(-c2c[nH]c(C(N)=O)c2)cc(-c2ccco2)nc1N [Example 6]	2.41
N#Cc1c(N)nc2c(c1-c1ccccc1)CCc1n[nH]cc1-2 [Example 7]	2.73
Cn1cnc(-c2cc(-c3ccco3)nc(N)c2C#N)c1 [Example 8]	2.88
N#Cc1c(N)nc2c(c1-c1ccco1)CCc1cc(O)ccc1-2 [Example 10]	3.48
N#Cc1c(N)nc2c(c1-c1c(F)cccc1F)CCc1[nH]ncc1-2 [Example 11]	3.59
N#Cc1c(-c2cnc[nH]2)cc(-c2ccc(O)cc2)nc1N [Example 12]	3.62
N#Cc1c(-c2ccccc2F)cc(-c2ccco2)nc1N [Example 13]	4.06
N#Cc1c(-c2ccccc2F)cc(-c2ccco2)nc1N [Example 14]	4.41
N#Cc1c(N)nc2c(c1-c1ccccc1F)CCc1ccccc1-2 [Example 15]	4.47
N#Cc1c(-c2ccco2)cc(-c2ccc(C(=O)O)cc2)nc1N [Example 16]	4.63
N#Cc1c(-c2cnc[nH]2)cc(-c2ccco2)nc1N [Example 17]	4.94
N#Cc1c(N)nc2c(c1-c1nnc[nH]1)CCc1cc(C(=O)O)ccc1-2 [Example 19]	5.74
N#Cc1c(-c2cnc[nH]2)cc(-c2cccc(O)c2)nc1N [Example 20]	5.81
N#Cc1c(-c2cnc[nH]2)cc(-c2ccco2)nc1N [Example 21]	5.95
N#Cc1c(N)nc2c(c1N)CC(C(F)(F)F)O2 (stereo not shown) [Example 23]	6.14
N#Cc1c(N)nc2c(c1-c1ccco1)CCc1c[nH]cc1-2 [Example 24]	6.2
N#Cc1c(-c2ccccc2F)cc(-c2ccc(C(=O)O)cc2)nc1N [Example 25]	6.4
N#Cc1c(N)nc2c(c1-c1ccco1)CCc1cnccc1-2 [Example 26]	6.48
N#Cc1c(-c2ccccc2F)cc(-c2ccc(O)c(O)c2)nc1N [Example 27]	7.54
Cn1cnc(-c2cc(-c3ccccc3)nc(N)c2C#N)c1 [Example 28]	7.63
N#Cc1c(-c2ccco2)cc(-c2cc[nH]n2)nc1N [Example 29]	7.72
N#Cc1c(-c2cnc[nH]2)cc(-c2ccc(C(=O)O)cc2)nc1N [Example 30]	8.37
N#Cc1c(N)nc2c(c1-c1cccc(F)c1)CCc1n[nH]cc1-2 [Example 31]	8.5
N#Cc1c(-c2ccccc2F)cc(-c2ccc(O)c(O)c2)nc1N [Example 32]	9.2

SMILES	IC50 [µM]
CS(=O)(=O)Nc1ccc(-c2cc(-c3ccco3)c(C#N)c(N)n2)cc1 [Example 33]	9.27
N#Cc1c(N)nc2c(c1-c1ccco1)CCc1[nH]ccc1-2 [Example 34]	9.4
N#Cc1c(-c2cnc[nH]2)cc(-c2ccccc2)nc1N [Example 35]	9.4
N#Cc1c(N)nc2c(c1-c1ccco1)CCc1ccccc1-2 [Example 36]	9.42
COc1ccc(-c2cc(-c3cnc[nH]3)c(C#N)c(N)n2)cc1 [Example 37]	9.43
N#Cc1c(-c2ccco2)cc(-c2cn[nH]c2)nc1N [Example 39]	11.6
COc1ccc(-c2c(C#N)c(N)nc3c2CCc2[nH]ncc2-3)cc1 [Example 40]	12
N#Cc1c(N)nc2c(c1-c1ccc(F)cc1)CCc1n[nH]cc1-2 [Example 42]	12.9
N#Cc1c(N)nc2c(c1-c1nnc[nH]1)CCc1ccccc1-2 [Example 43]	13.1
N#Cc1c(N)nc2c(c1N)CC(CCl)O2 (stereo not shown) [Example 44]	13.4
N#Cc1c(-c2cnc[nH]2)cc(-c2ccccc2)nc1N [Example 45]	14.2
N#Cc1c(-c2ccco2)cc(-c2ccc(S(N)(=O)=O)cc2)nc1N [Example 46]	16.1
N#Cc1c(-c2ccco2)cc(-c2ccc(B(O)O)cc2)nc1N [Example 47]	16.7
COc1ccc(-c2cc(-c3nnc[nH]3)c(C#N)c(N)n2)cc1 [Example 48]	17.3
N#Cc1c(-c2ccccc2F)cc(-c2ccoc2)nc1N [Example 49]	17.9
CSc1cc(-c2ccco2)nc(N)c1C#N [Example 50]	22.5
N#Cc1c(-c2ccccc2F)cc(-c2cccc(O)c2)nc1N [Example 51]	24.2
N#Cc1c(-c2ccccc2Br)cc(-c2ccco2)nc1N [Example 53]	26.1
N#Cc1c(-c2ccccc2)cc(-c2cccs2)nc1N [Example 55]	26.9
COc1cccc(-c2c(C#N)c(N)nc3c2CCc2[nH]ncc2-3)c1 [Example 56]	27.8
Cn1ncc2c1CCc1c-2nc(N)c(C#N)c1-c1ccco1 [Example 57]	28.3
N#Cc1c(-c2ccccc2F)cc(-c2ccc[nH]2)nc1N [Example 58]	29.3
CC1Cc2n[nH]cc2-c2nc(N)c(C#N)c(-c3ccco3)c21 (stereo not shown) [Example 59]	31.3
Cn1ccc(-c2cc(-c3ccco3)c(C#N)c(N)n2)c1 [Example 60]	32.1
CC(=O)Nc1ccc(-c2c(C#N)c(N)nc3c2CCc2[nH]ncc2-3)cc1 [Example 62]	35.9
